Laboratory results taken from US20230372277A1, “COMPOSITION FOR PROMOTING HAIR GROWTH AND/OR INHIBITING HAIR LOSS” (priority 2020, published 2023).
Marks after values point to notes of the source that are not given here.

What was measured:
[1] = test system: dihydrotestosterone (DHT); assay: DHT concentration in plasma (ELISA kit) of testosterone-injected rats; format: in vivo, male wistar albino rats; conditions: for concentration of DHT in plasma (FIG. 4b): testosterone-injected rats, compounds or mixture oral 10 mg/kg daily 21 days
Description: (§1) For 21 days, the testosterone solution and broccoli extract, avocado extract or broccoli and avocado extract were administered, and on the next day, before skin samples were collected, plasma from rats was extracted and the concentration of testosterone and DHT were measured using a testosterone and DHT ELISA kit (Arigo Biolaboratories, Taiwan) according to the manufacturer's instructions.

hair follicles [2] = assay: Density of hair follicles in skin (number in 1 mm^2); format: in vivo, male wistar albino rats; conditions: testosterone-injected rats; for Rate of change compared to normal group (%) (density of hair follicles): Table 7, Equation 1, compounds or mixture oral 10 mg/kg daily 21 days
Description: The density of hair follicles was measured by counting the number of hair follicles in a unit area (1 mm^2).
Rate of change compared to normal group=(hair follicle density of negative control group or experimental group−hair follicle density of normal group)/hair follicle density of normal group (Equation 1)
(§2) The normal control group (control; normal group) is a group in which neither testosterone nor the extract is administered, and the negative control group (Testosterone; T) is a group in which only testosterone is administered.
as §2
as §2, with “As a comparative group, the mixture was administered by the same method, and the administration method was a method of intraperitoneal administration (IP). The” for “The”

hair follicles [3] = assay: Shape and length of hair follicles in haematoxylin and eosin stained dorsal skin; format: in vivo, male wistar albino rats; conditions: testosterone-injected rats; for length of hair follicles (FIG. 5): compounds or mixture oral 10 mg/kg daily 21 days, compared to negative control (negative control compared to normal group)
Description: By staining the skin tissue of experimental animals, the shape change of hair follicles was investigated. […] After 24 hours, the skin sample was soaked in paraffin wax and sectioned to a uniform thickness of 10 μm, and hair follicles were stained with haematoxylin and eosin.

testosterone = assay: Testosterone concentration in plasma (ELISA kit) of testosterone-injected rats; format: in vivo, male wistar albino rats; conditions: for concentration of testosterone in plasma (FIG. 4a): testosterone-injected rats, compounds or mixture oral 10 mg/kg daily 21 days
Description: as §1

hair follicles [4] = assay: Ratio of anagen stage and telogen stage of hair follicles in skin; conditions: for Rate of change compared to normal group (anagen/telogen ratio) / Anagen/telogen ratio / Anagen / Telogen: testosterone-injected rats
Description: Male wistar albino rats weight 180 to 240 g, February to March age were bred under the conditions of a constant light-dark cycle in which light was applied from 8 am to 8 pm, a temperature of 22 to 25° C., and a relative humidity of 60%. For the feed of experimental animals, a general pellet dry feed was used, and feed and water were allowed to be consumed at all times.
In addition, the broccoli extract and/or avocado extract prepared in Example 1 were orally administered for a total of 21 days daily so as to be a dose of 100 mg per 1 kg of the body weight of each experimental animal (in case of coadministration group, broccoli extract 67 mg/kg+avocado extract 33 mg/kg).
Rate of change compared to normal group=(anagen/telogen ratio of negative control group or experimental group−anagen/telogen ratio of normal group)/anagen/telogen ratio of normal group (Equation 2)

[5] = Table 7, compounds or mixture (SFN 8 + I3C 1 + β-sitosterol 1 mg/kg) oral 10 mg/kg daily 21 days, mean ± SEM, n = 15
[6] = Table 8, Equation 2, compounds or mixture oral 10 mg/kg daily 21 days
[7] = Table 8, compounds or mixture oral 10 mg/kg daily 21 days
[8] = rats injected s.c. with testosterone 21 days, extracts oral 100 mg/kg daily 21 days (mixture BE 67 + AE 33 mg/kg), negative control compared to normal group
[9] = Table 8, compounds or mixture oral 10 mg/kg daily 21 days, listed as Group B, 10 mg/kg
[10] = Table 8, compounds or mixture oral 10 mg/kg daily 21 days, listed as testosterone solution, 10 mg/kg

## CC[C@H](CC[C@@H](C)[C@H]1CC[C@H]2[C@@H]3CC=C4C[C@@H](O)CC[C@]4(C)[C@H]3CC[C@]12C)C(C)C [β-sitosterol]
[1]
  concentration of DHT in plasma (FIG. 4b): significantly reduced
Hair follicles [2]; 10 mg/kg
  Rate of change compared to normal group (%) (density of hair follicles): about 68%
Hair follicles [2]; listed as Group E, 10 mg/kg
  Rate of change compared to normal group (%) (density of hair follicles): +67.56%
Hair follicles [2]; [5]
  Density of hair follicles: 2.195 ± 0.093
Hair follicles [3]
  length of hair follicles (FIG. 5): increased

## OCc1c[nH]c2ccccc12 [indole-3-carbinol]
[1]
  concentration of DHT in plasma (FIG. 4b): significantly reduced
testosterone
  concentration of testosterone in plasma (FIG. 4a): significantly reduced
Hair follicles [2]; 10 mg/kg
  Rate of change compared to normal group (%) (density of hair follicles): about 21%
Hair follicles [2]; listed as Group D, 10 mg/kg
  Rate of change compared to normal group (%) (density of hair follicles): +21.37%
Hair follicles [2]; [5]
  Density of hair follicles: 1.59 ± 0.74
Hair follicles [4]; [6]
  Rate of change compared to normal group (anagen/telogen ratio): −54.88%
Hair follicles [4]; [7]
  Anagen/telogen ratio: 0.87*
Hair follicles [3]
  length of hair follicles (FIG. 5): increased

## C[C@]12CC[C@H]3[C@@H](CCC4=CC(=O)CC[C@@]43C)[C@@H]1CC[C@@H]2O [Testosterone, testosterone]
[1]; [8]
  concentration of DHT in plasma (FIG. 1b): largely increased
[1]
  concentration of DHT in plasma (FIG. 4b): largely increased
testosterone; [8]
  concentration of testosterone in plasma (FIG. 1a): largely increased
testosterone
  concentration of testosterone in plasma (FIG. 4a): largely increased
Hair follicles [2]; Table 2, Equation 1, extracts oral 100 mg/kg daily 21 days
  Rate of change compared to normal group (hair follicle density): −30.53%
Hair follicles [2]; Table 2, number of hair follicles in 1 mm^2, extracts oral 100 mg/kg daily 21 days, mean ± SEM, n = 15
  Hair follicle density: 0.91 ± 0.069
Hair follicles [2]; Table 5, broccoli extracts by extraction solvent, same method as Example 3-2, mean ± standard error
  Hair follicle density: 0.98 ± 0.23
Hair follicles [2]
  Rate of change compared to normal group (%) (density of hair follicles): −30.53%
Hair follicles [2]; [5]
  Density of hair follicles: 0.91 ± 0.069
Hair follicles [2]; Table 9, Equation 1, mixtures at various mixing ratios, oral 10 mg/kg in total daily 21 days
  Rate of change compared to normal group (density of hair follicles): −21.6%
Hair follicles [2]; Table 9, SFN:I3C:β-sitosterol mixtures at various mixing ratios, oral 10 mg/kg in total daily 21 days, mean ± standard error
  Density of hair follicles: 0.98 ± 0.23
Hair follicles [4]; Table 3, Equation 2, extracts oral 100 mg/kg daily 21 days
  Rate of change compared to normal group (anagen/telogen ratio): −91.23%
Hair follicles [4]; Table 3, hair follicles in anagen stage, extracts oral 100 mg/kg daily 21 days, listed as Group 2, 100 mg/kg
  Anagen: 14.6
Hair follicles [4]; Table 3, hair follicles in anagen stage, extracts oral 100 mg/kg daily 21 days, listed as testosterone solution, 100 mg/kg
  Anagen: reduced
Hair follicles [4]; Table 3, hair follicles in telogen stage, extracts oral 100 mg/kg daily 21 days, listed as Group 2, 100 mg/kg
  Telogen: 85.4
Hair follicles [4]; Table 3, hair follicles in telogen stage, extracts oral 100 mg/kg daily 21 days, listed as testosterone solution, 100 mg/kg
  Telogen: increased
Hair follicles [4]; Table 3, extracts oral 100 mg/kg daily 21 days
  Anagen/telogen ratio: 0.171
Hair follicles [4]; [6]
  Rate of change compared to normal group (anagen/telogen ratio): −91.23%
Hair follicles [4]; [7]
  Anagen/telogen ratio: 0.17
Hair follicles [4]; [9]
  Anagen: 14.6
  Telogen: 85.4
Hair follicles [4]; [10]
  Anagen: reduced
  Telogen: increased
Hair follicles [4]; negative control group administered only with the testosterone solution s.c. 21 days
  anagen/telogen ratio reduced compared to the normal group: about 91%
Hair follicles [3]
  length of hair follicles (FIG. 5): largely reduced
Hair follicles [3]; extracts oral 100 mg/kg daily 21 days, H&E stained dorsal skin
  shape change of hair follicles (stained photograph, FIG. 2): many hair follicles in the telogen stage were found
Hair follicles [3]; extracts oral 100 mg/kg daily 21 days, extracts compared to negative control, negative control compared to normal group
  length of hair follicles (FIG. 3): largely reduced

## C[S+]([O-])CCCCN=C=S (stereo not drawn) [sulforaphane]
[1]
  concentration of DHT in plasma (FIG. 4b): significantly reduced
testosterone
  concentration of testosterone in plasma (FIG. 4a): significantly reduced
Hair follicles [2]; 10 mg/kg
  Rate of change compared to normal group (%) (density of hair follicles): about 47%
Hair follicles [2]; listed as Group C, 10 mg/kg
  Rate of change compared to normal group (%) (density of hair follicles): +47.33%
Hair follicles [2]; [5]
  Density of hair follicles: 1.93 ± 0.102
Hair follicles [4]; [6]
  Rate of change compared to normal group (anagen/telogen ratio): −47.05%
Hair follicles [4]; [7]
  Anagen/telogen ratio: 1.03*
Hair follicles [3]
  length of hair follicles (FIG. 5): increased
